Where a name gives a salt, the structure may show the parent alone. Read-outs that look alike come from different tables or passages of the source.
Key:
[1] = Reduction of lipids and cholesterol in rats treated orally; type: in vivo; conditions: for inhibition in vivo at 10 mg/kg / inhibition in vivo at 20 mg/kg: Rattus norvegicus, 72 h, 3 days; for inhibition in vivo at 10 mg/kg: oral 10 mg/kg; for inhibition in vivo at 20 mg/kg: oral 20 mg/kg
[2] = tested on: platelets (aggregation induced by ADP); assay: Anti-aggregation action, platelet aggregation induced by ADP; type: in vivo, male Wistar rats; conditions: oral 100 mg/kg, 4 days; for inhibition at 100 mg/kg: Rattus norvegicus, Platelet, 96 h, read-out: inhibition of transmission (ADP test); for change in aggregation, ADP transmission: ADP at 1 μM
Method: (b) by ADP: the inhibition of aggregation (that is to say the % transmission).
(§1) In Table IV which follows have been shown the results relating to the anti-aggregation action of some products on the blood of male Wistar rats, the aggregating agents used being collagen/acetic acid diluted 1/10, and ADP at 1 μM.

[3] = tested on: platelets (aggregation induced by collagen); assay: Anti-aggregation action, platelet aggregation induced by collagen; type: in vivo, male Wistar rats; conditions: 4 days; for change in aggregation, collagen, latency period / change in aggregation, collagen, speed / change in aggregation, collagen, transmission: oral 100 mg/kg, collagen/acetic acid diluted 1/10
Method: (a) by collagen: the inhibition of aggregation (which corresponds to the % transmission), the latency period and the speed; and
as §1

[4] = Reduction of lipids and cholesterol in rats treated orally; type: in vivo; conditions: Rattus norvegicus
Method: Some of the other results of the pharmacological tests which were carried out on rats are summarised below.
Rats given a normal diet are treated orally at a daily dose of 50 mg/kg for 3 and 5 days. A reduction of about 20% in the concentration of cholesterol and lipids in the plasma is observed.

[5] = Solubility of the isolated product; conditions: water
[6] = tested on: blood platelet aggregation; assay: Anti-aggregation action in rats (graded / in words); type: in vivo; set-up: key to Anti-aggregation action: -: zero activity; +: significant activity; ++: intense activity; +++: very intense activity; conditions: for anti-aggregation activity (in words): results of Table IV
[7] = Hypo-lipidaemic and hypo-cholesterolaemic action in rats on hyper-lipid diet; type: in vivo, Wistar rats; conditions: Rattus norvegicus, 0.1 g/kg in rats
Text: A. a batch of rats receiving a normal diet (percentage inhibition=100%);
B. a batch of rats receiving a hyper-lipid diet (percentage inhibition=0%);
C. a batch of rats receiving the hyper-lipid diet B with a daily dose, of 0.1 g/kg, of a reference product having a lipidaemia-normalising action, namely Lipavlon [ethyl 2-(p-chlorophenoxy)-2-methyl-propionate];
D. a batch of rats receiving the hyper-lipid diet B with a daily dose, of 0.1 g/kg, of another product having a lipidaemia-normalising action, namely LL 1558 [1,10-bis-(2-hydroxyethyl-thio)-decane]; and
E. a batch of rats receiving the hyper-lipid diet B with a daily dose of 10 mg/kg and 25 mg/kg, where necessary, higher doses.
In Table III which follows have been shown the results relating to CRL 40,201 (the product of Example 17) and CRL 40,202 (the product of Example 18) in respect of the hypo-lipidaemic action and hypo-cholesterolaemic action.

[8] = Clinical tests in man; type: in vivo
Method: The clinical tests have made it possible to confirm the pharmacological tests. Thus, in man, CRL 40,293 (Example 23) in the form of gelatine-coated pills containing 400 mg of active ingredient administered at the rate of 2 such pills twice daily has given good results in the treatment of circulatory complaints and especially of lipid disturbances.
CRL 40,386 (Example 8) has been used in man for the treatment of hyperlipidaemia in the form of gelatine-coated pills each containing 300 mg of active ingredient at the rate of 2 to 6 such pills per day.

[9] = type: in vivo; conditions: oral, male rats
Method: (§2) In female mice, the LD-50 on oral administration is 2,050 mg/kg. In male rats, the LD-0, on oral administration, is greater than 600 mg/kg.

[10] = Hypo-lipidaemic and hypo-cholesterolaemic action of other products (Table V); type: in vivo, rats; conditions: for change in vivo at 50 mg/kg / change in vivo at 100 mg/kg / change in vivo at 200 mg/kg: Rattus norvegicus; for change in vivo at 50 mg/kg: 72 h, oral 50 mg/kg for 3 days; for change in vivo at 100 mg/kg / change in vivo at 200 mg/kg: 96 h; for change in vivo at 100 mg/kg: oral 100 mg/kg for 4 days; for change in vivo at 200 mg/kg: oral 200 mg/kg for 4 days
Text: The results of the anti-aggregation test and of the hypo-[…] action and hypo-cholesterolaemic action tests of other products of the invention have been […] Table V which follows, the code used being the following (for each dose shown): […]

[11] = tested on: stomach and duodenum; assay: Gastric tolerance in fasting rats; type: in vivo
Text: It has furthermore been observed that CRL 40,293 is a well-tolerated substance.

[12] = in vivo; conditions: mouse, oral, female mice
Method: as §2

[13] = tested on: cardio-vascular parameters; assay: Cardio-vascular activity in anaesthetised dogs; type: in vivo; conditions: intraduodenal 100 then 200 mg/kg
Method: Three anaesthetised dogs are used for this study. The product is administered intraduodenally as a gum suspension.
Two dogs with the thorax closed and respiring spontaneously are given CRL 40,293 at a dose of 100 mg/kg followed by 200 mg/kg, this second dose being administered 1 hour 30 minutes to 2 hours after the first.
One dog with the thorax opened is given 100 mg/kg, followed after 1 hour by 200 mg/kg, of CRL 40,293.
In these animals the effects of injections of noradrenalin, acetylcholine, tyramine, DMPP, histamine and serotonine were unchanged and the same is true of the effects of occlusion of the carotids and of stimulation of the central end and peripheral end of the vagus.

[14] = read-out: reduction in the cholesterol
[15] = read-out: reduction in the lipids
[16] = read-out: Total lipids (change)
[17] = tablet of 250 to 500 mg, to prevent cardiovascular accidents, especially coronary insufficiency

In the case of CC(COC(=O)C(C)Oc1ccc(Sc2ccc(Cl)cc2)cc1)SCCCCCCCCCCSC(C)COC(=O)C(C)Oc1ccc(Sc2ccc(Cl)cc2)cc1 (racemic) [CRL 40,391, (±)-2,15-Dimethyl-3,14-dithia-1,16-hexadecyl di-(±)-{2-[p-(p-chlorophenylthio)-phenoxy]-propionate}], the inhibition in vivo at 10 mg/kg [1, 14] was 32%, the inhibition in vivo at 10 mg/kg [1, 15] was 17% and the inhibition in vivo at 20 mg/kg [1, 14] was 43%. For the same molecule, the inhibition in vivo at 20 mg/kg [1, 15] was 21%, the inhibition at 100 mg/kg [2] was 19% and the “latency time (collagen test)” value ([3]; 100 mg/kg, unit not given) was “+40”. The “speed (collagen test)” value ([3]; 100 mg/kg, unit not given) was -32, the inhibition in vivo at 50 mg/kg ([4]; 72 h, oral 50 mg/kg, 3 days, read-out: reduction in the cholesterol) was 42% and the inhibition in vivo at 50 mg/kg ([4]; 72 h, oral 50 mg/kg, 3 days, read-out: reduction in the lipids) was 29%.
For CC(C)(CNCCO)Oc1ccc(Sc2ccc(Cl)cc2)cc1 [CRL 40,238, N-Hydroxyethyl-4-(4-chlorophenylthio)-phenoxy-isobutylamine hydrochloride], the “change in aggregation, ADP transmission” value [2] was -46%, the “solubility in water (in words)” value [5] was “insoluble in water” and the “change in aggregation, collagen, latency period” value (“change … latency period” below) [3] was “+18%”. For the same molecule, the “change in aggregation, collagen, speed” value [3] was -52%, the “change in aggregation, collagen, transmission” value (from here on “change … collagen, transmission”) [3] was -47% and the “anti-aggregation activity (in words)” value [6] was “the most interesting amongst them”.
In the case of O=C(O)CSc1ccc(Oc2ccc(Cl)cc2)cc1 [CRL 40,271, 4-(4-Chlorophenoxy)-phenylthioacetic acid], the “change in aggregation, ADP transmission” value [2] was -28%, the “change … latency period” value [3] was “+15%” and the “change in aggregation, collagen, speed” value [3] was -60%. For the same molecule, the “change … collagen, transmission” value [3] was -25%, the inhibition at 100 mg/kg ([7]; read-out: cholesterol inhibition) was 54% and the inhibition at 100 mg/kg ([7]; read-out: total lipids inhibition) was 35%. For the same molecule, the “anti-aggregation activity (in words)” value [6] was “the most interesting amongst them”, the tolerance in man ([8]; gelatine-coated pill of 200 to 400 mg, 1 to 2 per day) was “well tolerated” and the “treatment of circulatory complaints due to hyperlipidaemias” value ([8]; man, gelatine-coated pill of 200 to 400 mg, 1 to 2 per day) was “efficient”.
With O=C(CSc1ccc(Oc2ccc(Cl)cc2)cc1)NCCO [CRL 40,272, N-Hydroxyethyl-4-(4-chlorophenoxy)-phenylthioacetamide] the “change in aggregation, ADP transmission” value [2] was -20%, the “change … latency period” value [3] was “+16%” and the “change … collagen, transmission” value [3] was 0%.
In the case of OCCNCCSc1ccc(Oc2ccc(Cl)cc2)cc1 [CRL 40,274, N-Hydroxyethyl-2-[4-(4-chlorophenoxy)phenylthio]-ethylamine], the “change in aggregation, ADP transmission” value [2] was -20%, the “solubility in water (in words)” value [5] was “insoluble in water” and the “change in aggregation, collagen, speed” value [3] was 0%.
In the case of CC(C)(CO)Sc1ccc(Oc2ccc(Cl)cc2)cc1 [CRL 40,276, 4-(4-Chlorophenoxy)-phenylthio-isobutanol], the “change in aggregation, ADP transmission” value [2] was -20%, the “change … latency period” value [3] was “+25%” and the “change in aggregation, collagen, speed” value [3] was -13%. For the same molecule, the “change … collagen, transmission” value [3] was -31%.
In the case of OCCOc1ccc(Oc2ccc(Cl)cc2)cc1 [CRL 40,293, 2-[4-(4-Chlorophenoxy)-phenoxy]ethanol], the LD-0 [9] was “greater than 600 mg/kg”, the decrease in cholesterol ([1]; daily oral 10 mg/kg, 3-4 days) was 20% and the “decrease in total lipids” value ([1]; daily oral 10 mg/kg, 3-4 days) was 20%. The change in vivo at 50 mg/kg ([10]; read-out: Cholesterol (change)) was -40%, the change in vivo at 50 mg/kg [10, 16] was -40% and the “hypo-lipidaemic and hypocholesterolaemic activity (in words)” value ([10]; oral 50 mg/kg) was “good hypo-lipidaemic and hypocholesterolaemic activity”. For the same molecule, the “ulceration or inflammation of the stomach and of the duodenum” value ([11]; fasting rats, 1 g/kg through a probang, 8 hours after administration) was “no ulceration or inflammation of the stomach and of the duodenum is observed”, the “tolerance (in words)” value ([11]; rat, in vivo) was “well-tolerated” and the Anti-aggregation action ([6]; 100 mg/kg per day for 3 days) was “+++”. The Anti-aggregation action ([6]; oral 50 mg/kg for 3 days) was “++”, the “treatment of circulatory complaints and especially of lipid disturbances” value ([8]; man, gelatine-coated pills of 400 mg, 2 pills twice daily) was “good results” and the LD50 [12] was 2050 mg/kg. For the same molecule, the “change of parameters: arterial pressure, pulse rate, left intra-ventricular pressure, dp/dt, vertebral and femoral arterial flow rates, respiration” value ([13]; closed thorax, 2 hours' observation) was “None of the parameters measured changed”, the “effects of noradrenalin, acetylcholine, tyramine, DMPP, histamine and serotonine injections, carotid occlusion and vagus stimulation” value ([13]; dogs) was “unchanged” and the “change of parameters: arterial pressure, pulse rate, left intraventricular pressure, dp/dt, aorta flow rate, work of left ventricle, coronary arterial flow rate” value ([13]; opened thorax, 2 hours' observation) was “None of the parameters measured changed”.
In the case of Cl.OCCNCCOc1ccc(Oc2ccc(Cl)cc2)cc1 [CRL 40,295, N-Hydroxyethyl-2-[4-(4-chlorophenoxy)-phenoxy]-1-ethylamine hydrochloride], the change in vivo at 100 mg/kg ([10]; read-out: Cholesterol (change)) was -32%, the change in vivo at 100 mg/kg [10, 16] was -19% and the change in vivo at 200 mg/kg ([10]; read-out: Cholesterol (change)) was -37%. For the same molecule, the change in vivo at 200 mg/kg [10, 16] was -28%, the solubility [5] was 200 mg/mL and the Anti-aggregation action ([6]; oral 100 mg/kg for 4 days) was “+++”. For the same molecule, the Anti-aggregation action ([6]; oral 200 mg/kg for 4 days) was “+++” and the tolerance in man [8, 17] was “well tolerated”.
In the case of Cl.NCCOc1ccc(Oc2ccc(Cl)cc2)cc1 [CRL 40,317, 2-[4-(4-Chlorophenoxy)-phenoxy]-ethylamine hydrochloride], the change in vivo at 100 mg/kg [10, 16] was -37%, the “solubility in water (in words)” value [5] was “soluble in water” and the Anti-aggregation action ([6]; oral 100 mg/kg for 4 days) was “+”. For the same molecule, the tolerance in man [8, 17] was “well tolerated”.
In the case of O=C(CSc1ccc(Sc2ccc(Cl)cc2)cc1)OCCSCCCCCCCCCCSCCOC(=O)CSc1ccc(Sc2ccc(Cl)cc2)cc1 [CRL 40,394, 3,14-Dithia-1,16-hexadecyl di-[p-(p-chlorophenylthio)-phenylthio-acetate]], the inhibition in vivo at 50 mg/kg ([4]; po, 120 h, 50 mg/kg, 5 days, read-out: reduction in the cholesterol) was 16% and the inhibition in vivo at 50 mg/kg ([4]; po, 120 h, 50 mg/kg, 5 days, read-out: reduction in the lipids) was 33%.
In the case of CC(C)(Sc1ccc(Sc2ccc(Cl)cc2)cc1)C(=O)OCCSCCCCCCCCCCSCCOC(=O)C(C)(C)Sc1ccc(Sc2ccc(Cl)cc2)cc1 [CRL 40,402, 3,14-Dithia-1,16-hexadecyl di-{2-[p-(p-chlorophenylthio)-phenylthio]-2-methylpropionate}], the inhibition in vivo at 20 mg/kg [1, 14] was 14%, the inhibition in vivo at 20 mg/kg [1, 15] was 17% and the “cholesterol content and lipids content (in words)” value ([1]; oral 10, 20 and 50 mg/kg, 3 to 5 days) was “a reduction in the cholesterol content and lipids content is observed”. For the same molecule, the inhibition at 100 mg/kg [2] was 25%.
